Counter-ions that a name gives are not always drawn.
Compound | melting point
CC(=O)OCCCOc1cccc(CNc2nc(-c3ccncc3)cc(=O)n2C)c1 [Compound 73, Acetic acid 3-{3-[(1-methyl-6-oxo-4-pyridin-4-yl-1 ,6-dihydro-pyrimidin-2-ylamino)-methyl]-phenoxy}-propyl ester] | 198 to 201 °C
NCCCCCn1c(NCCc2ccccc2)nc(-c2ccncc2)cc1=O (as salt: hydrochloride) [Compound 88, 3-(5-Amino-pentyl)-2-phenethylamino-6-pyridin-4-yl-3H-pyrimidin-4-one] | 178 to 180 °C
CCCCCCCCNc1nc(-c2ccncc2)cc(=O)n1C | 114 to 116 °C
Cn1c(NCCc2ccc(N)cc2)nc(-c2ccncc2)cc1=O [Compound 11, 2-[[2-(4-aminophenyl)ethyl]amino]-3-methyl-6-pyridin-4-ylpyrimidin-4(3H)-one] | 197.3 to 197.5 °C
NCCCCCCn1c(NCCc2ccccc2)nc(-c2ccncc2)cc1=O (as salt: hydrochloride) | 125 to 127 °C
Cn1c(N2CCCCC2)nc(-c2ccncc2)cc1=O (as salt: tartrate) [Compound 38, 2-(piperidin-1-yl)-3-methyl-6-pyridin-4-ylpyrimidin-4(3H)-one] | 228 to 230 °C
CCCCCCCNc1nc(-c2ccncc2)cc(=O)n1C [Compound 50, 2-Heptylamino-3-methyl-6-pyridin-4-yl-3H-pyrimidin-4-one] | 121 to 123 °C
CCCCNc1nc(-c2ccncc2)cc(=O)n1C [Compound 47, 2-Butylamino-3-methyl-6-pyridin-4-yl-3H-pyrimidin-4-one] | 180 to 182 °C
NCCCCCCNc1nc(-c2ccncc2)cc(=O)n1CCCc1ccccc1 (as salt: hydrochloride) | 142 to 143 °C
Cc1cccc2c(CCNc3nc(-c4ccncc4)cc(=O)n3C)c[nH]c12 [Compound 32, 2-[[2-(7-methyl-1H-indol-3-yl)ethyl]amino]-3-methyl-6-pyridin-4-ylpyrimidin-4 (3H)-one] | 217.2 to 217.3 °C
O=c1cc(-c2ccncc2)nc(NCCCc2ccccc2)n1Cc1ccccc1 [Compound 28, 2-[[3-(phenyl)propyl]amino]-3-phenylmethyl-6-pyridin-4-ylpyrimidin-4(3H)-one] | 218 to 221 °C
CC(C)OCCCNc1nc(-c2ccncc2)cc(=O)n1C [Compound 63, 2-(3-Isopropoxy-propylamino)-3-methyl-6-pyridin-4-yl-3H-pyrimidin-4-one] | 95 to 98 °C
Cn1c(NCCc2ccc(-c3ccccc3)cc2)nc(-c2ccncc2)cc1=O [Compound 22, 2-[[2-(4-phenylphenyl)ethyl]amino]-3-methyl-6-pyridin-4-ylpyrimidin-4(3H)-one] | 175.4 to 175.6 °C
Cn1c(NCc2cccc(CN)c2)nc(-c2ccncc2)cc1=O (as salt: hydrochloride) | 193 to 197 °C
CN(CCCC1CCCCC1)c1nc(-c2ccncc2)cc(=O)n1C (as salt: hydrochloride) [Compound 68, 2-[(3-Cyclohexyl-propyl)-methyl-amino]-3-methyl-6-pyridin-4-yl-3H-pyrimidin-4-one] | 188 to 191 °C
Cn1c(NCCc2c[nH]c3ccc(OCc4ccccc4)cc23)nc(-c2ccncc2)cc1=O [Compound 31, 2-[[2-(5-phenylmethoxy-1H-indol-3-yl)ethyl]amino]-3-methyl-6-pyridin-4-ylpyrimidin-4(3H)-one] | 168.4 to 168.6 °C
Cn1c(NC2CCCCC2)nc(-c2ccncc2)cc1=O [Compound 46, 2-Cyclohexylamino-3-methyl-6-pyridin-4-yl-3H-pyrimidin-4-one] | 268 to 270 °C
CCOCCCNc1nc(-c2ccncc2)cc(=O)n1C [Compound 59, 2-(3-Ethoxy-propylamino)-3-methyl-6-pyridin-4-yl-3H-pyrimidin-4-one] | 118 to 120 °C
CCCCCNc1nc(-c2ccncc2)cc(=O)n1C [Compound 48, 3-Methyl-2-pentylamino-6-pyridin-4-yl-3H-pyrimidin-4-one] | 157 to 159 °C
NCCCCCCn1c(NCCCc2ccccc2)nc(-c2ccncc2)cc1=O (as salt: hydrochloride) | 192 to 195 °C
Cn1c(NCC2CCCCC2)nc(-c2ccncc2)cc1=O [Compound 56, 2-(Cyclohexylmethyl-amino)-3-methyl-6-pyridin-4-yl-3H-pyrimidin-4-one] | 218 to 220 °C
Cn1c(NCc2cccc(OCCCc3ccncc3)c2)nc(-c2ccncc2)cc1=O (as salt: hydrochloride) [Compound 81, 3-Methyl-6-pyridin-4-yl-2-[3-(3-pyridin-4-yl-propoxy)-benzylamino]-3H-pyrimidin-4-one] | 210 to 213 °C
Cn1c(NCCC2CCCC2)nc(-c2ccncc2)cc1=O [Compound 66, 2-(2-Cyclopentyl-ethylamino)-3-methyl-6-pyridin-4-yl-3H-pyrimidin-4-one] | 190 to 194 °C
COc1ccccc1CCNc1nc(-c2ccncc2)cc(=O)n1CCCN (as salt: hydrochloride) [Compound 85, 3-(3-Amino-propyl)-2-[2-(2-methoxy-phenyl)-ethylamino]-6-pyridin-4-yl-3H-pyrimidin-4-one] | 198 to 201 °C
Cn1c(NCCC23CC4CC(CC(C4)C2)C3)nc(-c2ccncc2)cc1=O [Compound 70, 2-(2-Adamantan-1-yl-ethylamino)-3-methyl-6-pyridin-4-yl-3H-pyrimidin-4-one] | 107 to 111 °C

The remaining lines, values ahead:

melting point | Compound
122 to 124 °C | Cn1c(NCCCc2ccccc2)nc(-c2ccncc2)cc1=O [Compound 78, 3-Methyl-2-(3-phenyl-propylamino)-6-pyridin-4-yl-3H-pyrimidin-4-one]
162 to 168 °C | Cn1c(NCCSc2ccccc2)nc(-c2ccncc2)cc1=O [Compound 92, 3-Methyl-2-(2-phenylsulfanyl-ethylamino)-6-pyridin-4-yl-3H-pyrimidin-4-one]
154 to 156 °C (dec.) | Cn1c(NCCc2ccccn2)nc(-c2ccncc2)cc1=O [Compound 97, 3-Methyl-6-pyridin-4-yl-2(2-pyridin-2-yl-ethylamino)-3H-pyrimidin-4-one]
184 to 187.2 °C | Cn1c(NCCc2ccccc2F)nc(-c2ccncc2)cc1=O [Compound 5, 2-[[2-(2-fluorophenyl)ethyl]amino]-3-methyl-6-pyridin-4-ylpyrimidin-4(3H)-one]
193 to 194 °C | Cn1c(NCCOc2ccccc2)nc(-c2ccncc2)cc1=O [Compound 94, 3-Methyl-2-(2-phenoxy-ethylamino)-6-pyridin-4-yl-3H-pyrimidin-4-one]
187 to 189 °C | Cn1c(NCCCc2ccccc2)nc(-c2ccncc2)cc1=O (as salt: hydrochloride) [Compound 96, 3-Methyl-2-(3-phenyl-propylamino)-6-pyridin-4-yl-3H-pyrimidin-4-one]
165.3 to 165.5 °C | Cn1c(NCCc2ccc(Cl)cc2)nc(-c2ccncc2)cc1=O [Compound 14, 2-[[2-(4-chlorophenyl)ethyl]amino]-3-methyl-6-pyridin-4-ylpyrimidin-4(3H)-one]
175.2 to 175.4 °C | Cn1c(NCCc2ccccc2Cl)nc(-c2ccncc2)cc1=O [Compound 9, 2-[[2-(2-chlorophenyl)ethyl]amino]-3-methyl-6-pyridin-4-ylpyrimidin-4(3H)-one]
178.8 to 178.9 °C | Cn1c(NCCc2ccc(F)cc2)nc(-c2ccncc2)cc1=O [Compound 7, 2-[[2-(4-fluorophenyl)ethyl]amino]-3-methyl-6-pyridin-4-ylpyrimidin-4(3H)-one]
257.4 to 257.9 °C | Cn1c(NCCc2ccc(O)cc2)nc(-c2ccncc2)cc1=O [Compound 15, 2-[[2-(4-hydroxyphenyl)ethyl]amino]-3-methyl-6-pyridin-4-ylpyrimidin-4(3H)-one]
184.7 to 185 °C | Cc1ccc(CCNc2nc(-c3ccncc3)cc(=O)n2C)cc1 [Compound 16, 2-[[2-(4-methylphenyl)ethyl]amino]-3-methyl-6-pyridin-4-ylpyrimidin-4(3H)-one]

— patent US7378413B2, “2-amino-3-(alkyl)-pyrimidone derivatives” (Sanofi Aventis, priority 2000, dated 2008)
